Results as given in patent publication US10538561B2, “Peptide for treating inflammatory diseases” (priority 2015, dated 2020).

Legend:
[1] = test system: IL-6; experiment: LPS+PMA stimulated IL-6 secretion in HaCaT; format: cell-based, Human; settings: 24 h
Protocol: Effect on pro-inflammatory cytokines against TNF-α/LPS+PMA stimulation: TNF-α; IFN-γ; TARC; TSLP; IL-6; IL-8: Cell lines: Human keratinocytes (HaCaT); test item (TI); IS181; experimental steps: pre-treatment of cells with TI for 2 hours; stimulation with TNF-α: 20 ng/ml; stimulation with LPS+PMA-10 μg/ml LPS+40 ng/ml PMA; supernatant collection for cytokine analysis after 24 hours; concentration range: 0.1 μg/ml-100 μg/ml (duplicate wells); cytokines: TNF-α; IFN-γ; TARC; TSLP; IL-6; IL-8. Method of estimating cytokines: ELISA; positive control: dexamethasone.
Cell line: HaCaT (Human Keratinocytes); TI Treatment regimen: Pretreatment for 2 h; TI Concentration range: 0.1 μg/ml-100 μg/ml (duplicate wells); TNF-α stimulation: 20 ng/ml; LPS+PMA stimulation: 10 μg/ml LPS+40 ng/ml PMA; Time point for supernatants collection: 24 h; Method of estimation: ELISA; Positive control: Dexamethasone

[2] = Cell viability of splenocytes (MTT); format: cell-based, mouse; settings: mouse, mouse splenocytes, splenocytes, 24 h
Protocol: (§1) Cell lines: mouse splenocytes; test item: IS181; treatment regimen: single addition—24 hours; concentration range: 10 μg/ml-5000 μg/ml.A) Identification of non-cytotoxic concentrations: splenocytes were treated with IS181 for 24 hours. Effect on cell viability was assessed by MTT assay. Concentrations leading to >75% cell viability were selected for IL-17 assay. B) IL-17 assay: splenocytes were treated with IS181 in presence of ConA stimulation for 24 hours. Supernatants were collected and stored at −20° C. till analysed. Levels of IL-17 were analysed in supernatants by ELISA. Percent inhibition of IL-17 secretion was calculated with reference to ConA treated levels. Positive control: curcumin.

[3] = test system: mouse splenocytes; experiment: Cell viability of splenocytes (MTT); format: cell-based; settings: splenocytes
Protocol: as §1

[4] = test system: Human Keratinocytes (HaCaT); experiment: Cell cycle assay (Sub-G0/G1); format: cell-based; settings: 48 h
Protocol: Cell lines: Human Keratinocytes (HaCaT); test Item: IS181; treatment regimen: treated twice (once after 24 hours)-48 hours; concentration range: 100 6 g/ml-5000 6 g/ml. […] Cells were treated with IS181 for 24 hours. After 24 h, cells were again treated with IS181 for 24 hours. After 48 h of first treatment, cells were harvested and fixed in ethanol overnight. Cells were washed and stained with Cell cycle reagent and acquired on flow cytometer. […] Positive control: Curcumin.

[5] = test system: Human Keratinocytes (HaCaT); experiment: TUNEL assay; format: cell-based; settings: 48 h
Protocol: Cell lines: Human Keratinocytes (HaCaT); test item (TI): IS181; treatment regimen: treated twice (once after 24 hours)-48 hours; Concentration range: 100 6 g/ml-5000 6 g/ml. […] Cells were sera starved in 1% FBS for 24 hours. Cells were treated with IS181 for 24 hours. After 24 h, cells were again treated with IS181 for 24 hours. After 48 h of first treatment, cells were processed for TUNEL staining. Fold increase in apoptotic cells [TUNEL positive] was calculated with respect to untreated control cells. Positive control: Curcumin, Anthralin, Betullinic acid. […] No increase in TUNEL positive cells was observed from 100 μg/ml-2000 μg/ml.

[6] = test system: 8-oxo-G; experiment: UVB damage: 8-oxo-G formation (ELISA); format: cell-based, human; settings: HaCaT, UVB 30 mJ/cm2, 5 μg/ml
Protocol: Effect on Cyclobutane Pyrimidine Dimers (CPD); Effect on 8-oxo-G formation: Cell line: HaCaT (human keratinocytes); test items: IS 181; concentration range: 0.1-100 μg/ml (Duplicate wells). Method of estimation: Plating of cells; Sera starvation with 0.1% FBS (24 hours); treatment of cells with test items (24 hours); UVB damage (30 mJ/cm2)+Test items addition (24 hours); Cyclobutane pyrimidine dimers (CPD) and 8-oxo-G estimation using ELISA.

[7] = test system: HaCaT (Human keratinocyte); experiment: LDH enzyme release assay; format: cell-based
Protocol: For testing Apoptosis the Human Keratinocytes (HaCaT) cell line has been employed. The growth conditions are DMEM containing 1% FBS. […] Test concentration range is IS181 is tested at the highest (Qualitative analysis) effective concentrations selected on the basis of Quantitative JC-1 assay. The method of estimation is Mitochondrial membrane depolarization by JC-1 assay (Early apoptosis), LDH enzyme release (Necrosis). Treatment regimen & time points are JC-1 assay—Single addition, 20 h; LDH assay—Single addition, 24 h; Positive control: Triton-X-100, Doxorubicin-hydrochloride
End-point: Percentage increase in LDH activity in treated cells with respect to untreated.

## H-WVQRVVEKFLK-OH [IS181, H-Trp-Val-Gln-Arg-Val-Val-Glu-Lys-Phe-Leu-Lys-OH]
[1]; 0.1 μg/ml
  IL-6 % decrease with respect to LPS + PMA: −58.3%
  IL-6 Conc: 23.7 pg/mL
[1]; 1 μg/ml
  IL-6 % decrease with respect to LPS + PMA: −78.5%
  IL-6 Conc: 26.7 pg/mL
[1]; 5 μg/ml
  IL-6 % decrease with respect to LPS + PMA: −56.5%
  IL-6 Conc: 23.4 pg/mL
[1]; 10 μg/ml
  IL-6 % decrease with respect to LPS + PMA: −48.0%
  IL-6 Conc: 22.1 pg/mL
[1]; 100 μg/ml
  IL-6 % decrease with respect to LPS + PMA: −160.6%
  IL-6 Conc: 39.0 pg/mL
[2]; 10 μg/ml
  viability at 24 h, 10 μg/ml: 97%
[2]; 50 μg/ml
  viability at 24 h, 50 μg/ml: 110%
[2]; 100 μg/ml
  viability at 24 h, 100 μg/ml: 110%
[2]; 500 μg/ml
  viability at 24 h, 500 μg/ml: 94.6%
[2]; 1 mg/ml
  viability at 24 h, 1 mg/ml: 79.4%
[2]; 2 mg/ml
  viability at 24 h, 2 mg/ml: 51.6%
[2]; 5 mg/ml
  viability at 24 h, 5 mg/ml: 25.6%
[3]
  cytotoxicity: < 25%
[3]; 2 mg/ml
  cytotoxicity: 48.4%
[3]; 5 mg/ml
  cytotoxicity: 74.4%
[4]; 100 μg/ml
  increase in pro-apoptotic cells (Sub-G0/G1 population) vs untreated: 9.1 fold
[4]; 500 μg/ml
  increase in pro-apoptotic cells (Sub-G0/G1 population) vs untreated: 7.1 fold
[4]; 1000 μg/ml
  increase in pro-apoptotic cells (Sub-G0/G1 population) vs untreated: 2.3 fold
[4]; 5000 μg/ml
  increase in pro-apoptotic cells (Sub-G0/G1 population) vs untreated: 29.7 fold
[5]; 100 μg/ml-2000 μg/ml
  increase in TUNEL positive cells: No increase
[5]; 5000 μg/ml
  increase in apoptotic cells (TUNEL positive population) vs untreated: 28.3%
[6]
  % Decrease in 8-OCO-G formation with respect to UVB irradiated untreated cells: 15.5%
[7]; 750 μg/ml to 2 mg/ml
  increase in LDH enzyme activity with respect to untreated: ≥ 90%
[7]; 24 h, 400 μg/ml
  % Increase with respect to untreated (LDH): 26.03%
  LDH Activity (mU/ml): 79.73 mU/ml
[7]; 24 h, 475 μg/ml
  % Increase with respect to untreated (LDH): ***49.73%
  LDH Activity (mU/ml): 94.71 mU/ml
[7]; 24 h, 500 μg/ml
  % Increase with respect to untreated (LDH): **34.76%
  LDH Activity (mU/ml): 85.25 mU/ml
[7]; 24 h, 750 μg/ml
  % Increase with respect to untreated (LDH): ***90.43%
  LDH Activity (mU/ml): 120.47 mU/ml
[7]; 24 h, 1000 μg/ml
  % Increase with respect to untreated (LDH): ***116.28%
  LDH Activity (mU/ml): 136.82 mU/ml
[7]; 24 h, 2000 μg/ml
  % Increase with respect to untreated (LDH): ***119.09%
  LDH Activity (mU/ml): 138.60 mU/ml
[7]; 24 h, concentrations around IC50 value
  increase in LDH enzyme release with respect to untreated: > 50%
